Reference: US20170354148A1, “SAFENED HERBICIDAL COMPOSITIONS CONTAINING HALAUXIFEN AND METHODS OF USE THEREOF IN BRASSICA SPECIES” (Dow AgroSciences LLC, priority 2016, published 2017)

Tested on: Spring Argentine canola (Brassica napus, BRSNS)
Assay: Example 3 field trials (Canada), postemergence crop safety, visual phytotoxicity

## COC(=O)c1nc(-c2ccc(Cl)c(OC)c2F)cc(N)c1Cl [Halauxifen-methyl, methyl 4-amino-3-chloro-6-(4-chloro-2-fluoro-3-methoxyphenyl)-2-pyridineccarboxylate]
Table 14, 57DAAA, halauxifen-methyl 5, quinclorac 101 g ae/ha, alone or mixed
  Mean % Visual Injury: 30.3%
Table 15, 7DAAA, halauxifen-methyl 5, clopyralid-olamine 150, quinclorac 101 g ae/ha, alone or mixed
  Mean % Visual Injury: 0.8%
Table 15, 15DAAA, halauxifen-methyl 5, clopyralid-olamine 150, quinclorac 101 g ae/ha, alone or mixed
  Mean % Visual Injury: 50.5%
Table 15, 27DAAA, halauxifen-methyl 5, clopyralid-olamine 150, quinclorac 101 g ae/ha, alone or mixed
  Mean % Visual Injury: 48.5%
Table 15, 57DAAA, halauxifen-methyl 5, clopyralid-olamine 150, quinclorac 101 g ae/ha, alone or mixed
  Mean % Visual Injury: 30.3%
Table 16, 7DAAA, halauxifen-methyl 5 g ae/ha, alone or plus isoxadifen-ethyl 5 g ae/ha
  Mean % Visual Injury: 0.8%
Table 16, 15DAAA, halauxifen-methyl 5 g ae/ha, alone or plus isoxadifen-ethyl 5 g ae/ha
  Mean % Visual Injury: 50.5%
Table 16, 27DAAA, halauxifen-methyl 5 g ae/ha, alone or plus isoxadifen-ethyl 5 g ae/ha
  Mean % Visual Injury: 48.5%
Table 16, 57DAAA, halauxifen-methyl 5 g ae/ha, alone or plus isoxadifen-ethyl 5 g ae/ha
  Mean % Visual Injury: 30.3%
Table 17, 7DAAA, halauxifen-methyl 5, clopyralid-olamine 150 g ae/ha alone, or both mixed with isoxadifen-ethyl 5 g ae/ha
  Mean % Visual Injury: 0.8%
Table 17, 15DAAA, halauxifen-methyl 5, clopyralid-olamine 150 g ae/ha alone, or both mixed with isoxadifen-ethyl 5 g ae/ha
  Mean % Visual Injury: 50.5%
Table 17, 27DAAA, halauxifen-methyl 5, clopyralid-olamine 150 g ae/ha alone, or both mixed with isoxadifen-ethyl 5 g ae/ha
  Mean % Visual Injury: 48.5%
Table 17, 57DAAA, halauxifen-methyl 5, clopyralid-olamine 150 g ae/ha alone, or both mixed with isoxadifen-ethyl 5 g ae/ha
  Mean % Visual Injury: 30.3%
Table 18, 8DAAA, halauxifen-methyl 5, clopyralid-olamine 150 g ae/ha, alone or mixed
  Mean % Visual Injury: 10%
Table 18, 14DAAA, halauxifen-methyl 5, clopyralid-olamine 150 g ae/ha, alone or mixed
  Mean % Visual Injury: 24%
Table 18, 40DAAA, halauxifen-methyl 5, clopyralid-olamine 150 g ae/ha, alone or mixed
  Mean % Visual Injury: 7%
Table 18, 81DAAA, halauxifen-methyl 5, clopyralid-olamine 150 g ae/ha, alone or mixed
  Mean % Visual Injury: 6%
Table 19, 8DAAA, halauxifen-methyl 5, clopyralid-olamine 150 g ae/ha alone, or both mixed with isoxadifen-ethyl 20 g ae/ha
  Mean % Visual Injury: 10%
Table 19, 14DAAA, halauxifen-methyl 5, clopyralid-olamine 150 g ae/ha alone, or both mixed with isoxadifen-ethyl 20 g ae/ha
  Mean % Visual Injury: 24%
Table 19, 40DAAA, halauxifen-methyl 5, clopyralid-olamine 150 g ae/ha alone, or both mixed with isoxadifen-ethyl 20 g ae/ha
  Mean % Visual Injury: 7%
Table 19, 81DAAA, halauxifen-methyl 5, clopyralid-olamine 150 g ae/ha alone, or both mixed with isoxadifen-ethyl 20 g ae/ha
  Mean % Visual Injury: 6%
Table 21, 8DAAA, halauxifen-methyl 5, quinclorac 101 g ae/ha, alone or mixed
  Mean % Visual Injury: 10%
Table 21, 14DAAA, halauxifen-methyl 5, quinclorac 101 g ae/ha, alone or mixed
  Mean % Visual Injury: 24%
Table 21, 40DAAA, halauxifen-methyl 5, quinclorac 101 g ae/ha, alone or mixed
  Mean % Visual Injury: 7%
Table 21, 81DAAA, halauxifen-methyl 5, quinclorac 101 g ae/ha, alone or mixed
  Mean % Visual Injury: 6%
Table 22, 8DAAA, halauxifen-methyl 5, clopyralid-olamine 150, quinclorac 101 g ae/ha, alone or mixed
  Mean % Visual Injury: 10%
Table 22, 14DAAA, halauxifen-methyl 5, clopyralid-olamine 150, quinclorac 101 g ae/ha, alone or mixed
  Mean % Visual Injury: 24%
Table 22, 40DAAA, halauxifen-methyl 5, clopyralid-olamine 150, quinclorac 101 g ae/ha, alone or mixed
  Mean % Visual Injury: 7%
Table 22, 81DAAA, halauxifen-methyl 5, clopyralid-olamine 150, quinclorac 101 g ae/ha, alone or mixed
  Mean % Visual Injury: 6%
Table 23, 7DAAA, halauxifen-methyl 5, clopyralid-olamine 150 g ae/ha, alone or mixed
  Mean % Visual Injury: 2.5%
Table 23, 17DAAA, halauxifen-methyl 5, clopyralid-olamine 150 g ae/ha, alone or mixed
  Mean % Visual Injury: 3.0%
Table 23, 49DAAA, halauxifen-methyl 5, clopyralid-olamine 150 g ae/ha, alone or mixed
  Mean % Visual Injury: 2.5%
Table 24, 7DAAA, halauxifen-methyl 5, clopyralid-olamine 150 g ae/ha alone, or both mixed with isoxadifen-ethyl 20 g ae/ha
  Mean % Visual Injury: 2.5%
Table 24, 17DAAA, halauxifen-methyl 5, clopyralid-olamine 150 g ae/ha alone, or both mixed with isoxadifen-ethyl 20 g ae/ha
  Mean % Visual Injury: 3.0%
Trial 1, 16DAA1, halauxifen-methyl 2.5, clopyralid-olamine 150 g ae/ha, alone or mixed
  Mean % Visual Growth Inhibition: 1.5%
Trial 1, 30DAA1, halauxifen-methyl 2.5, clopyralid-olamine 150 g ae/ha, alone or mixed
  Mean % Visual Growth Inhibition: 3.3%
Trial 1, 58DAA1, halauxifen-methyl 2.5, clopyralid-olamine 150 g ae/ha, alone or mixed
  Mean % Visual Growth Inhibition: 1.0%
Trial 2, 32DAA1, halauxifen-methyl 0.62, clopyralid-olamine 150 g ae/ha, alone or mixed
  Mean % Visual Growth Inhibition: 1.0%
Trial 2, 32DAA1, halauxifen-methyl 1.25, clopyralid-olamine 150 g ae/ha, alone or mixed
  Mean % Visual Growth Inhibition: 3.8%
Trial 2, 32DAA1, halauxifen-methyl 2.5, clopyralid-olamine 150 g ae/ha, alone or mixed
  Mean % Visual Growth Inhibition: 8.0%
Trial 2, 49DAA1, halauxifen-methyl 0.62, clopyralid-olamine 150 g ae/ha, alone or mixed
  Mean % Visual Growth Inhibition: 0.3%
Trial 2, 49DAA1, halauxifen-methyl 1.25, clopyralid-olamine 150 g ae/ha, alone or mixed
  Mean % Visual Growth Inhibition: 2.3%
Trial 2, 49DAA1, halauxifen-methyl 2.5, clopyralid-olamine 150 g ae/ha, alone or mixed
  Mean % Visual Growth Inhibition: 2.5%
Trial 3, 8DAA1, halauxifen-methyl 5, clopyralid-olamine 150 g ae/ha, alone or mixed, line r23
  Mean % Visual Growth Inhibition: 2.5%
Trial 3, 8DAA1, halauxifen-methyl 5, clopyralid-olamine 150 g ae/ha, alone or mixed, line r25
  Mean % Visual Growth Inhibition: 1.5%
Trial 3, 8DAA1, halauxifen-methyl 10, clopyralid-olamine 150 g ae/ha, alone or mixed, line r22
  Mean % Visual Growth Inhibition: 3.3%
Trial 3, 8DAA1, halauxifen-methyl 10, clopyralid-olamine 150 g ae/ha, alone or mixed, line r24
  Mean % Visual Growth Inhibition: 2.3%
Trial 3, 17DAA1, halauxifen-methyl 5, clopyralid-olamine 150 g ae/ha, alone or mixed, line r27
  Mean % Visual Growth Inhibition: 1.3%
Trial 3, 17DAA1, halauxifen-methyl 5, clopyralid-olamine 150 g ae/ha, alone or mixed, line r29
  Mean % Visual Growth Inhibition: 1.5%
Trial 3, 17DAA1, halauxifen-methyl 10, clopyralid-olamine 150 g ae/ha, alone or mixed, line r26
  Mean % Visual Growth Inhibition: 29.5%
Trial 3, 17DAA1, halauxifen-methyl 10, clopyralid-olamine 150 g ae/ha, alone or mixed, line r28
  Mean % Visual Growth Inhibition: 2.8%
Trial 3, 35DAA1, halauxifen-methyl 10, clopyralid-olamine 150 g ae/ha, alone or mixed
  Mean % Visual Growth Inhibition: 0.8%
Trial 3, 48DAA1, halauxifen-methyl 5, clopyralid-olamine 150 g ae/ha, alone or mixed, line r31
  Mean % Visual Growth Inhibition: 1.8%
Trial 3, 48DAA1, halauxifen-methyl 5, clopyralid-olamine 150 g ae/ha, alone or mixed, line r32
  Mean % Visual Growth Inhibition: 1.5%
Trial 4, 13DAA1, halauxifen-methyl 10, clopyralid-olamine 150 g ae/ha, alone or mixed, line r33
  Mean % Visual Growth Inhibition: 57.5%
Trial 4, 13DAA1, halauxifen-methyl 10, clopyralid-olamine 150 g ae/ha, alone or mixed, line r34
  Mean % Visual Growth Inhibition: 31.3%
Trial 5, 7DAA1, halauxifen-methyl 0.62, clopyralid-olamine 150 g ae/ha, alone or mixed
  Mean % Visual Growth Inhibition: 1.0%
Trial 5, 7DAA1, halauxifen-methyl 1.25, clopyralid-olamine 150 g ae/ha, alone or mixed
  Mean % Visual Growth Inhibition: 1.5%
Trial 5, 7DAA1, halauxifen-methyl 2.5, clopyralid-olamine 150 g ae/ha, alone or mixed
  Mean % Visual Growth Inhibition: 1.5%
Trial 5, 7DAA1, halauxifen-methyl 5, clopyralid-olamine 150 g ae/ha, alone or mixed
  Mean % Visual Growth Inhibition: 2.0%
Trial 6, 33DAA1, halauxifen-methyl 5, clopyralid-olamine 150 g ae/ha, alone or mixed
  Mean % Visual Growth Inhibition: 4.5%
Trial 7, 8DAA1, halauxifen-methyl 5, clopyralid-olamine 150 g ae/ha, alone or mixed
  Mean % Visual Growth Inhibition: 8.0%
Trial 7, 15DAA1, halauxifen-methyl 0.62, clopyralid-olamine 150 g ae/ha, alone or mixed
  Mean % Visual Growth Inhibition: 2.5%
Trial 7, 15DAA1, halauxifen-methyl 5, clopyralid-olamine 150 g ae/ha, alone or mixed
  Mean % Visual Growth Inhibition: 15.5%
Trial 8, 7DAA1, halauxifen-methyl 5, clopyralid-olamine 150 g ae/ha, alone or mixed
  Mean % Visual Growth Inhibition: 7.5%
Trial 8, 7DAA1, halauxifen-methyl 10, clopyralid-olamine 150 g ae/ha, alone or mixed, line r44
  Mean % Visual Growth Inhibition: 9.0%
Trial 8, 7DAA1, halauxifen-methyl 10, clopyralid-olamine 150 g ae/ha, alone or mixed, line r45
  Mean % Visual Growth Inhibition: 3.5%
Trial 8, 7DAA1, halauxifen-methyl 10, clopyralid-olamine 150 g ae/ha, alone or mixed, line r46
  Mean % Visual Growth Inhibition: 2.0%
Trial 8, 7DAA1, halauxifen-methyl 10, clopyralid-olamine 150 g ae/ha, alone or mixed, line r47
  Mean % Visual Growth Inhibition: 1.5%
Trial 8, 15DAA1, halauxifen-methyl 5, clopyralid-olamine 150 g ae/ha, alone or mixed
  Mean % Visual Growth Inhibition: 20.0%
Trial 8, 15DAA1, halauxifen-methyl 10, clopyralid-olamine 150 g ae/ha, alone or mixed, line r49
  Mean % Visual Growth Inhibition: 6.0%
Trial 8, 15DAA1, halauxifen-methyl 10, clopyralid-olamine 150 g ae/ha, alone or mixed, line r50
  Mean % Visual Growth Inhibition: 2.0%
Trial 9, 23DAA1, halauxifen-methyl 2.5, clopyralid-olamine 150 g ae/ha, alone or mixed
  Mean % Visual Growth Inhibition: 35.0%
Trial 9, 23DAA1, halauxifen-methyl 5, clopyralid-olamine 150 g ae/ha, alone or mixed
  Mean % Visual Growth Inhibition: 50.0%
Trial 9, 33DAA1, halauxifen-methyl 5, clopyralid-olamine 150 g ae/ha, alone or mixed
  Mean % Visual Growth Inhibition: 25.0%
Trial 9, 59DAA1, halauxifen-methyl 5, clopyralid-olamine 150 g ae/ha, alone or mixed
  Mean % Visual Growth Inhibition: 6.3%
Trial 10, 17DAA1, halauxifen-methyl 5, clopyralid-olamine 100 g ae/ha, alone or mixed
  Mean % Visual Growth Inhibition: 46.7%
Trial 10, 17DAA1, halauxifen-methyl 5, clopyralid-olamine 150 g ae/ha, alone or mixed
  Mean % Visual Growth Inhibition: 46.7%
Trial 10, 17DAA1, halauxifen-methyl 5, clopyralid-olamine 200 g ae/ha, alone or mixed
  Mean % Visual Growth Inhibition: 46.7%
Trial 10, 27DAA1, halauxifen-methyl 5, clopyralid-olamine 150 g ae/ha, alone or mixed
  Mean % Visual Growth Inhibition: 16.7%
Trial 10, 27DAA1, halauxifen-methyl 5, clopyralid-olamine 200 g ae/ha, alone or mixed
  Mean % Visual Growth Inhibition: 16.7%
Trial 11, 7DAA1, halauxifen-methyl 5, clopyralid-olamine 150 g ae/ha, alone or mixed
  Mean % Visual Growth Inhibition: 1.3%
Trial 11, 15DAA1, halauxifen-methyl 0.62, clopyralid-olamine 150 g ae/ha, alone or mixed
  Mean % Visual Growth Inhibition: 2.0%
Trial 11, 15DAA1, halauxifen-methyl 1.25, clopyralid-olamine 150 g ae/ha, alone or mixed
  Mean % Visual Growth Inhibition: 6.5%
Trial 12, 15DAA1, halauxifen-methyl 10, clopyralid-olamine 150 g ae/ha, alone or mixed
  Mean % Visual Growth Inhibition: 25.0%
Trial 12, 27DAA1, halauxifen-methyl 5, clopyralid-olamine 150 g ae/ha, alone or mixed
  Mean % Visual Growth Inhibition: 5.8%
